The values that follow come from US20160108049A1 (TAKEDA Gmbh, priority 2011, published 2016).

Test [1] concerns the target T1, PDE4B1 (Homo sapiens, UniProt Q07343).
T1 construct: made in house; host or cells: SF21 insect cells (baculovirus; virus made in SF9 cells, pCR-Bac vector)
Briefly: Inhibition of PDE4 activity (PDE4B1, SPA assay). Conditions: recombinant PDE4B1, 0.5 μM cAMP; read-out: PDE4B1 Inhibitory values measured as -logIC50 (converted). Type of test: biochemical. The essentials:
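Read-out is SPA yttrium silicate bead scintillation after IBMX-containing beads stop the reaction. Insect-cell (SF21) lysate enzyme hydrolysed 0.5 μM [3H]cAMP at pH 7.4 with 5 mM Mg2+ for 15 min after a 5 min 37 °C preincubation; IC50 fitted by non-linear regression.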

Test [2] concerns the target T2, human PDE5 (Homo sapiens, UniProt O76074).
T2 construct: from tissue; host or cells: human platelets from fresh donor blood (platelet lysate)
The test can be described thus: Inhibition of PDE5 activity (platelet lysate, SPA assay). The following applies: 0.5 μM cGMP, read-out: PDE5 Inhibitory values measured as -logIC50 (converted). It counts as biochemical. A digest of the protocol:
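SPA readout of [3H]cGMP hydrolysis (0.5 μM, 15 min, 37 °C after 5 min preincubation), stopped with yttrium silicate beads containing IBMX. Enzyme was lysate from human platelets, used at 10–20% substrate turnover, with PDE3 (motapizone 1 μM) and PDE2 (10 nM) blockers present. IC50 values fitted non-linearly from concentration-effect curves.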

T1 sequence (Q07343 whole entry): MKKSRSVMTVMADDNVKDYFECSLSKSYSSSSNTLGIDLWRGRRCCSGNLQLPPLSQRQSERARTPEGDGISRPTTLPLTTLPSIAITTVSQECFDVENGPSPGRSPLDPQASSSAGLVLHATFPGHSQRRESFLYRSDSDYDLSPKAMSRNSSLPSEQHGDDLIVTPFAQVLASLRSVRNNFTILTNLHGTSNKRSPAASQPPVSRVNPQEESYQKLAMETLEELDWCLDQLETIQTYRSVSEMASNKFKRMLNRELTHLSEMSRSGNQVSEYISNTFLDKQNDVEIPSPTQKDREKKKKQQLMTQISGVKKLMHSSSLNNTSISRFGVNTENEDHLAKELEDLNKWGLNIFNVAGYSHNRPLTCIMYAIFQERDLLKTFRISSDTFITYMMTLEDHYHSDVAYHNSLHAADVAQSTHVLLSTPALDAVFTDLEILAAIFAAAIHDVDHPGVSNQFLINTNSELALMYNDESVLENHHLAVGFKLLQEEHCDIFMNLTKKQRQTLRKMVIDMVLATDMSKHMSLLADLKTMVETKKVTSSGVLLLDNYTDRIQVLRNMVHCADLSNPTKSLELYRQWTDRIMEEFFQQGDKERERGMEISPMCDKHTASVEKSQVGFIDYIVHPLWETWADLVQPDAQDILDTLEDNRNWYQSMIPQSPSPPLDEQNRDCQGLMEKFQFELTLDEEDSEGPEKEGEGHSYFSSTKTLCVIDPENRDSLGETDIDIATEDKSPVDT

As to `COc1ccc(C2=NN(C3CCN(C(=O)[C@H](CN(C)C)NC(=O)c4c[nH]c5c(-c6c(OCC7CC7)ccc7c6OCO7)ncnc45)CC3)C(=O)[C@@H]3CCCC[C@H]23)cc1OC` [Example 97, 4-[5-(cyclopropylmethoxy)-1,3-benzodioxol-4-yl]-N-[(2S)-1-{4-[(4aS,8aR)-4-(3,4-dimethoxyphenyl)-1-oxo-4a,5,6,7,8,8a-hexahydrophthalazin-2(1H)-yl]piperidin-1-yl}-3-(dimethylamino)-1-oxopropan-2-yl]-5H-pyrrolo[3,2-d]pyrimidine-7-carboxamide], the IC50 in test [1] and in test [2] was 1 to 10 nM each time.
In the case of `COc1ccc(C2=NN(C3CCN(C(=O)[C@@H](CCSC)NC(=O)c4c[nH]c5c(-c6c(OCC7CC7)ccc7c6OCO7)ncnc45)CC3)C(=O)[C@@H]3CCCC[C@H]23)cc1OC` [Example 98, 4-[5-(cyclopropylmethoxy)-1,3-benzodioxol-4-yl]-N-[(2R)-1-{4-[(4aS,8aR)-4-(3,4-dimethoxyphenyl)-1-oxo-4a,5,6,7,8,8a-hexahydrophthalazin-2(1H)-yl]piperidin-1-yl}-4-(methylsulfanyl)-1-oxobutan-2-yl]-5H-pyrrolo[3,2-d]pyrimidine-7-carboxamide], the IC50 in test [1] and in test [2] was under 1 nM throughout.
On to `COc1ccc(C2=NN(C3CCN(C(=O)[C@@H](Cc4ccc(Br)cc4)NC(=O)c4c[nH]c5c(-c6c(OCC7CC7)ccc7c6OCO7)ncnc45)CC3)C(=O)[C@@H]3CCCC[C@H]23)cc1OC` [Example 99, N-[(2R)-3-(4-bromophenyl)-1-{4-[(4aS,8aR)-4-(3,4-dimethoxyphenyl)-1-oxo-4a,5,6,7,8,8a-hexahydrophthalazin-2(1H)-yl]piperidin-1-yl}-1-oxopropan-2-yl]-4-[5-(cyclopropylmethoxy)-1,3-benzodioxol-4-yl]-5H-pyrrolo[3,2-d]pyrimidine-7-carboxamide], for which the IC50 in test [1] and in test [2] was 1 to 10 nM throughout.
As for `COc1ccc(C2=NN(C3CCN(C(=O)[C@@H](CCC(=O)OCc4ccccc4)NC(=O)c4c[nH]c5c(-c6c(OCC7CC7)ccc7c6OCO7)ncnc45)CC3)C(=O)[C@@H]3CCCC[C@H]23)cc1OC` [Example 100, Benzyl (4R)-4-[({4-[5-(cyclopropylmethoxy)-1,3-benzodioxol-4-yl]-5H-pyrrolo[3,2-d]pyrimidin-7-yl}carbonyl)amino]-5-{4-[(4aS,8aR)-4-(3,4-dimethoxyphenyl)-1-oxo-4a,5,6,7,8,8a-hexahydrophthalazin-2(1H)-yl]piperidin-1-yl}-5-oxopentanoate], the IC50 in test [1] and in test [2] was 1 to 10 nM throughout.
For the compound `COc1ccc(C2=NN(C3CCN(C(=O)[C@@H](CCC(=O)O)NC(=O)c4c[nH]c5c(-c6c(OCC7CC7)ccc7c6OCO7)ncnc45)CC3)C(=O)[C@@H]3CCCC[C@H]23)cc1OC` [Example 101, (4R)-4-[({4-[5-(cyclopropylmethoxy)-1,3-benzodioxol-4-yl]-5H-pyrrolo[3,2-d]pyrimidin-7-yl}carbonyl)amino]-5-{4-[(4aS,8aR)-4-(3,4-dimethoxyphenyl)-1-oxo-4a,5,6,7,8,8a-hexahydrophthalazin-2(1H)-yl]piperidin-1-yl}-5-oxopentanoic acid], the IC50 in test [1] and in test [2] was 1 to 10 nM in each case.
Take `COc1ccc(C2=NN(C3CCN(C(=O)[C@H](CCC(=O)N4CCCC4)NC(=O)c4c[nH]c5c(-c6c(OCC7CC7)ccc7c6OCO7)ncnc45)CC3)C(=O)[C@@H]3CCCC[C@H]23)cc1OC` [Example 102, 4-[5-(cyclopropylmethoxy)-1,3-benzodioxol-4-yl]-N-[(2S)-1-{4-[(4aS,8aR)-4-(3,4-dimethoxyphenyl)-1-oxo-4a,5,6,7,8,8a-hexahydrophthalazin-2(1H)-yl]piperidin-1-yl}-1,5-dioxo-5-(pyrrolidin-1-yl)pentan-2-yl]-5H-pyrrolo[3,2-d]pyrimidine-7-carboxamide]: the IC50 in test [1] and in test [2] was 1 to 10 nM each time.
For the compound `COc1ccc(C2=NN(C3CCN(C(=O)[C@H](CCC(=O)OCc4ccccc4)NC(=O)c4c[nH]c5c(-c6c(OCC7CC7)ccc7c6OCO7)ncnc45)CC3)C(=O)[C@@H]3CCCC[C@H]23)cc1OC` [Example 104, Benzyl (4S)-4-[({4-[5-(cyclopropylmethoxy)-1,3-benzodioxol-4-yl]-5H-pyrrolo[3,2-d]pyrimidin-7-yl}carbonyl)amino]-5-{4-[(4aS,8aR)-4-(3,4-dimethoxyphenyl)-1-oxo-4a,5,6,7,8,8a-hexahydrophthalazin-2(1H)-yl]piperidin-1-yl}-5-oxopentanoate], the IC50 in test [1] and in test [2] was 1 to 10 nM each time.
With `COc1ccc(C2=NN(C3CCN(C(=O)[C@@H](CCC(=O)N4CCCC4)NC(=O)c4c[nH]c5c(-c6c(OCC7CC7)ccc7c6OCO7)ncnc45)CC3)C(=O)[C@@H]3CCCC[C@H]23)cc1OC` [Example 105, 4-[5-(cyclopropylmethoxy)-1,3-benzodioxol-4-yl]-N-[(2R)-1-{4-[(4aS,8aR)-4-(3,4-dimethoxyphenyl)-1-oxo-4a,5,6,7,8,8a-hexahydrophthalazin-2(1H)-yl]piperidin-1-yl}-1,5-dioxo-5-(pyrrolidin-1-yl)pentan-2-yl]-5H-pyrrolo[3,2-d]pyrimidine-7-carboxamide], the IC50 in test [1] and in test [2] was 1 to 10 nM in each case.
For `COc1ccc(C2=NN(C3CCN(C(=O)[C@H](CCC(=O)NC(C)C)NC(=O)c4c[nH]c5c(-c6c(OCC7CC7)ccc7c6OCO7)ncnc45)CC3)C(=O)[C@@H]3CCCC[C@H]23)cc1OC` [Example 106, 4-[5-(cyclopropylmethoxy)-1,3-benzodioxol-4-yl]-N-[(2S)-1-{4-[(4aS,8aR)-4-(3,4-dimethoxyphenyl)-1-oxo-4a,5,6,7,8,8a-hexahydrophthalazin-2(1H)-yl]piperidin-1-yl}-1,5-dioxo-5-(propan-2-ylamino)pentan-2-yl]-5H-pyrrolo[3,2-d]pyrimidine-7-carboxamide], the IC50 in test [1] and in test [2] was 1 to 10 nM throughout.
For the compound `COc1ccc(C2=NN(C3CCN(C(=O)[C@@H](CCC(=O)NC(C)C)NC(=O)c4c[nH]c5c(-c6c(OCC7CC7)ccc7c6OCO7)ncnc45)CC3)C(=O)[C@@H]3CCCC[C@H]23)cc1OC` [Example 107, 4-[5-(cyclopropylmethoxy)-1,3-benzodioxol-4-yl]-N-[(2R)-1-{4-[(4aS,8aR)-4-(3,4-dimethoxyphenyl)-1-oxo-4a,5,6,7,8,8a-hexahydrophthalazin-2(1H)-yl]piperidin-1-yl}-1,5-dioxo-5-(propan-2-ylamino)pentan-2-yl]-5H-pyrrolo[3,2-d]pyrimidine-7-carboxamide], the IC50 in test [1] and in test [2] was 1 to 10 nM in each case.
For `COc1ccc(C2=NN(C3CCN(C(=O)[C@@H](Cc4ccc(F)cc4)NC(=O)c4c[nH]c5c(-c6c(OCC7CC7)ccc7c6OCO7)ncnc45)CC3)C(=O)C(C)(C)C2)cc1OC` [Example 108, 4-[5-(cyclopropylmethoxy)-1,3-benzodioxol-4-yl]-N-[(2R)-1-{4-[3-(3,4-dimethoxyphenyl)-5,5-dimethyl-6-oxo-5,6-dihydropyridazin-1(4H)-yl]piperidin-1-yl}-3-(4-fluorophenyl)-1-oxopropan-2-yl]-5H-pyrrolo[3,2-d]pyrimidine-7-carboxamide], the IC50 in test [1] and in test [2] was under 1 nM throughout.
On to `COc1ccc(C2=NN(C3CCN(C(=O)[C@@H](Cc4ccncc4)NC(=O)c4c[nH]c5c(-c6c(OCC7CC7)ccc7c6OCO7)ncnc45)CC3)C(=O)[C@@H]3CCCC[C@H]23)cc1OC` [Example 109, 4-[5-(cyclopropylmethoxy)-1,3-benzodioxol-4-yl]-N-[(2R)-1-{4-[(4aS,8aR)-4-(3,4-dimethoxyphenyl)-1-oxo-4a,5,6,7,8,8a-hexahydrophthalazin-2(1H)-yl]piperidin-1-yl}-1-oxo-3-(pyridin-4-yl)propan-2-yl]-5H-pyrrolo[3,2-d]pyrimidine-7-carboxamide], for which the IC50 in test [1] and in test [2] was under 1 nM in each case.
For the compound `COc1ccc(C2=NN(C3CCN(C(=O)[C@H](Cc4ccccc4)NC(=O)c4c[nH]c5c(-c6c(OCC7CC7)ccc7c6OCO7)ncnc45)CC3)C(=O)C(C)(C)C2)cc1OC` [Example 110, 4-[5-(cyclopropylmethoxy)-1,3-benzodioxol-4-yl]-N-[(2S)-1-{4-[3-(3,4-dimethoxyphenyl)-5,5-dimethyl-6-oxo-5,6-dihydropyridazin-1(4H)-yl]piperidin-1-yl}-1-oxo-3-phenylpropan-2-yl]-5H-pyrrolo[3,2-d]pyrimidine-7-carboxamide], the IC50 in test [1] and in test [2] was 1 to 10 nM in each case.
As to `COc1ccc(C2=NN(C3CCN(C(=O)[C@@H](C)NC(=O)c4c[nH]c5c(-c6c(OCC7CC7)ccc7c6OCO7)ncnc45)CC3)C(=O)C(C)(C)C2)cc1OC` [Example 111, 4-[5-(cyclopropylmethoxy)-1,3-benzodioxol-4-yl]-N-[(2R)-1-{4-[3-(3,4-dimethoxyphenyl)-5,5-dimethyl-6-oxo-5,6-dihydropyridazin-1(4H)-yl]piperidin-1-yl}-1-oxopropan-2-yl]-5H-pyrrolo[3,2-d]pyrimidine-7-carboxamide], the IC50 in test [1] and in test [2] was 1 to 10 nM each time.
